Data reported in patent US20240384350A1, “METHODS OF TREATING CANCER WITH KINASE INHIBITORS” (BOARD OF REGENTS, THE UNIVERSITY OF TEXAS SYSTEM, priority 2021, published 2024).

How the values were obtained:
Experiment in all cases: Ba/F3 drug screening, Cell Titer Glo, IC50 Mut/WT
Format in all cases: cell-based
EGFR L747P = biological target: T1, EGFR L747P (Homo sapiens, UniProt P00533, L747P); conditions: Ba/F3 cells, EGFR L747P (PACC), Mut/WT
T1 construct: expressed in transfected cells; host or cells: Ba/F3

EGFR G719A L861Q = biological target: T2, EGFR G719A L861Q (Homo sapiens, UniProt P00533, G719A/L861Q); conditions: Ba/F3 cells, EGFR G719A L861Q (PACC), Mut/WT
T2 construct: expressed in transfected cells; host or cells: Ba/F3

EGFR L861R = biological target: T3, EGFR L861R (Homo sapiens, UniProt P00533, L861R); conditions: Classical-Like, 72 hours
T3 construct: expressed in transfected cells; host or cells: Ba/F3 cells, retroviral pBabe-Puro vector (vector made by GeneScript from EGFR WT)

EGFR Ex19del T790M L718V = biological target: T4, EGFR Ex19del T790M L718V (Homo sapiens, UniProt P00533, DEL746-750/L718V/T790M); conditions: T790M-like-3S, 72 hours
T4 construct: expressed in transfected cells; host or cells: Ba/F3

EGFR Ex19del G796S = biological target: T5, EGFR Ex19del G796S (Homo sapiens, UniProt P00533, DEL746-750/G796S); conditions: Ba/F3 cells, EGFR Ex19del G796S (PACC), Mut/WT
T5 construct: expressed in transfected cells; host or cells: Ba/F3

EGFR D761N = biological target: T6, EGFR D761N (Homo sapiens, UniProt P00533, D761N); conditions: Classical-Like, 72 hours
T6 construct: expressed in transfected cells; host or cells: Ba/F3 cells, retroviral pBabe-Puro vector

EGFR Ex19del L718Q = biological target: T7, EGFR Ex19del L718Q (Homo sapiens, UniProt P00533, DEL746-750/L718Q); conditions: Ba/F3 cells, EGFR Ex19del L718Q (PACC), Mut/WT
T7 construct: expressed in transfected cells; host or cells: Ba/F3

EGFR L747S = biological target: T8, EGFR L747S (Homo sapiens, UniProt P00533, L747S); conditions: Ba/F3 cells, EGFR L747S (PACC), Mut/WT
T8 construct: expressed in transfected cells; host or cells: Ba/F3

EGFR G719A = biological target: T9, EGFR G719A (Homo sapiens, UniProt P00533, G719A); conditions: Ba/F3 cells, EGFR G719A (PACC), Mut/WT
T9 construct: expressed in transfected cells; host or cells: Ba/F3

EGFR L858R/L792H = biological target: T10, EGFR L858R/L792H (Homo sapiens, UniProt P00533, L792H/L858R); conditions: Ba/F3 cells, EGFR L858R/L792H (PACC), Mut/WT
T10 construct: expressed in transfected cells; host or cells: Ba/F3

EGFR R776H = biological target: T11, EGFR R776H (Homo sapiens, UniProt P00533, R776H); conditions: Ba/F3 cells, EGFR R776H (PACC), Mut/WT
T11 construct: host or cells: Ba/F3

EGFR A763insLQEA = biological target: T12, EGFR A763insLQEA (Homo sapiens, UniProt P00533, INS763LQEA); conditions: Classical-Like, 72 hours
T12 construct: expressed in transfected cells; host or cells: Ba/F3 cells, retroviral pBabe-Puro vector

EGFR L858R/L718V = biological target: T13, EGFR L858R/L718V (Homo sapiens, UniProt P00533, L718V/L858R); conditions: Ba/F3 cells, EGFR L858R/L718V (PACC), Mut/WT
T13 construct: host or cells: Ba/F3

EGFR E709K = biological target: T14, EGFR E709K (Homo sapiens, UniProt P00533, E709K); conditions: Ba/F3 cells, EGFR E709K (PACC), Mut/WT
T14 construct: expressed in transfected cells; host or cells: Ba/F3

EGFR N771dupN G724S = biological target: T15, EGFR N771dupN G724S (Homo sapiens, UniProt P00533, DUP771-771/G724S); conditions: Ex20, 72 hours
T15 construct: expressed in transfected cells; host or cells: Ba/F3 cells, retroviral pBabe-Puro vector (vector made by GeneScript from EGFR G724S, c.2313_2314insAAC)

EGFR L718Q = biological target: T16, EGFR L718Q (Homo sapiens, UniProt P00533, L718Q); conditions: Ba/F3 cells, EGFR L718Q (PACC), Mut/WT
T16 construct: expressed in transfected cells; host or cells: Ba/F3

EGFR I740dupIPVAK = conditions: Ba/F3 cells, EGFR I740dupIPVAK (PACC), Mut/WT
EGFR L833V = biological target: T17, EGFR L833V (Homo sapiens, UniProt P00533, L833V); conditions: Classical-Like, 72 hours
T17 construct: expressed in transfected cells; host or cells: Ba/F3 cells, retroviral pBabe-Puro vector

EGFR L858R T790M L792H = biological target: T18, EGFR L858R T790M L792H (Homo sapiens, UniProt P00533, L792H/L858R/T790M); conditions: T790M-like-3S, 72 hours
T18 construct: expressed in transfected cells; host or cells: Ba/F3

EGFR L858R T790M L718V = biological target: T19, EGFR L858R T790M L718V (Homo sapiens, UniProt P00533, L718V/L858R/T790M); conditions: T790M-like-3R, 72 hours
T19 construct: expressed in transfected cells; host or cells: Ba/F3

EGFR Ex19del T790M = biological target: T20, EGFR Ex19del T790M (Homo sapiens, UniProt P00533, DEL746-750/T790M); conditions: T790M-like-3S, 72 hours
T20 construct: expressed in transfected cells; host or cells: Ba/F3

EGFR L858R/T790M/L718Q = biological target: T21, EGFR L858R/T790M/L718Q (Homo sapiens, UniProt P00533, L718Q/L858R/T790M); conditions: T790M-like-3R, 72 hours
T21 construct: expressed in transfected cells; host or cells: Ba/F3

EGFR T790M = biological target: T22, EGFR T790M (Homo sapiens, UniProt P00533, T790M); conditions: T790M-like-3S, 72 hours
T22 construct: expressed in transfected cells; host or cells: Ba/F3

EGFR S768I/V769L = biological target: T23, EGFR S768I/V769L (Homo sapiens, UniProt P00533, S768I/V769L); conditions: Ba/F3 cells, EGFR S768I/V769L (PACC), Mut/WT
T23 construct: host or cells: Ba/F3

`C=CC(=O)N[C@H]1C=C(C)c2c(-c3cnc4ccccc4c3)c3c(N)ncnc3n2C1` [TAS 6417] was tested, and the “ratio of the IC50 value for cells with a PACC EGFR mutation to the IC50 value for cells with wildtype EGFR” value (shortened to “ratio of the IC50 value for cells”) (EGFR L747P) was 0.1949, the “ratio of the IC50 value for cells” value (EGFR G719A L861Q) was 0.02387 and the “ratio of IC50 for cells with mutant EGFR to IC50 for cells with wildtype EGFR (Mut/WT)” value (“ratio of IC50 for cells with mutant EGFR” for short) (EGFR L861R) was 0.02984. The “ratio of IC50 for cells with mutant EGFR” value (EGFR Ex19del T790M L718V) was 0.002884, the “ratio of the IC50 value for cells” value (EGFR Ex19del G796S) was 0.06554 and the “ratio of IC50 for cells with mutant EGFR” value (EGFR D761N) was 0.2474. For the same compound, the “ratio of the IC50 value for cells” value (EGFR Ex19del L718Q) was 2.333, the “ratio of the IC50 value for cells” value (EGFR L747S) was 0.06482 and the “ratio of the IC50 value for cells” value (EGFR G719A) was 0.01801. The “ratio of the IC50 value for cells” value (EGFR L858R/L792H) was 0.004611, the “ratio of the IC50 value for cells” value (EGFR R776H) was 0.09 and the “ratio of IC50 for cells with mutant EGFR” value (EGFR A763insLQEA) was 0.005254. The “ratio of the IC50 value for cells” value (EGFR L858R/L718V) was 0.01509, the “ratio of the IC50 value for cells” value (EGFR E709K) was 0.2516 and the “ratio of IC50 for cells with mutant EGFR” value (EGFR N771dupN G724S) was 0.05113. The “ratio of the IC50 value for cells” value (EGFR L718Q) was 0.02239, the “ratio of the IC50 value for cells” value (EGFR I740dupIPVAK) was 0.3555 and the “ratio of IC50 for cells with mutant EGFR” value (EGFR L833V) was 0.03111. The “ratio of IC50 for cells with mutant EGFR” value (EGFR L858R T790M L792H) was 9.536E−05, the “ratio of IC50 for cells with mutant EGFR” value (EGFR L858R T790M L718V) was 2.011 and the “ratio of IC50 for cells with mutant EGFR” value (EGFR Ex19del T790M) was 0.001513. The “ratio of IC50 for cells with mutant EGFR” value (EGFR L858R/T790M/L718Q) was 3.055, the “ratio of IC50 for cells with mutant EGFR” value (EGFR T790M) was 0.6671 and the “ratio of the IC50 value for cells” value (EGFR S768I/V769L) was 0.004702.
